In assay [1] the target is T1, Peroxisome proliferator-activated receptor alpha (Homo sapiens, UniProt Q07869).
T1 sequence (Q07869 whole entry): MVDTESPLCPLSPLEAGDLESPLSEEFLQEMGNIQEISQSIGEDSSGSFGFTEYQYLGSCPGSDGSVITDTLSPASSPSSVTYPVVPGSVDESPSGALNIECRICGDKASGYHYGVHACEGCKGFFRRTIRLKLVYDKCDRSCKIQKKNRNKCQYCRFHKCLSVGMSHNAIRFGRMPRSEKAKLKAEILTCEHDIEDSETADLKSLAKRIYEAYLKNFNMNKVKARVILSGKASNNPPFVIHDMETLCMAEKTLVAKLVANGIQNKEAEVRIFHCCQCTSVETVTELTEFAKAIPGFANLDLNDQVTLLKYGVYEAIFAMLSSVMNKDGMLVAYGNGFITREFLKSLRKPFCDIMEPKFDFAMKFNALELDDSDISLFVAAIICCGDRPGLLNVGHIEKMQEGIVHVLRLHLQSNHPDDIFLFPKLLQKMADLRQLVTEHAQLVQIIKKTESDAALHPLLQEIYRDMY
In words: Binding affinity of compound to human peroxisome proliferator-activated receptor alpha was determined by competitive binding assay.

The target of assay [2] is T1, Peroxisome proliferator-activated receptor alpha. In words: Compound was tested for half maximum transactivation activity of human peroxisome proliferator-activated receptor alpha. It counts as functional.

Data on two molecules can be found in ChEMBL document CHEMBL1135028, “Enantio-dependent binding and transactivation of optically active phenylpropanoic acid derivatives at human peroxisome proliferator-activated receptor alpha” (Bioorg Med Chem Lett, 2002).

One may read the EC50 as the concentration giving half of the maximal effect.

`CC[C@@H](Cc1ccc(OC)c(C(=O)NCc2ccc(C(F)(F)F)cc2)c1)C(=O)O` registered a concentration giving a half-maximal response (EC50) in assay [1] of 0.74 µM.

For the molecule `CC[C@H](Cc1ccc(OC)c(C(=O)NCc2ccc(C(F)(F)F)cc2)c1)C(=O)O`, the EC50 in assay [1] was found to be 24 µM; in assay [2], 1.5 µM.
